Source: US7655756B2 (Johnson & Johnson Pharmaceutical Research & Development, LLC, priority 2005, dated 2010)

Target: T1, ligand binding domain of ERRγ (Homo sapiens, UniProt P62508)
T1 construct: 6His; made in house; host or cells: E. coli BL21(DE3)
T1 sequence (P62508 229-458): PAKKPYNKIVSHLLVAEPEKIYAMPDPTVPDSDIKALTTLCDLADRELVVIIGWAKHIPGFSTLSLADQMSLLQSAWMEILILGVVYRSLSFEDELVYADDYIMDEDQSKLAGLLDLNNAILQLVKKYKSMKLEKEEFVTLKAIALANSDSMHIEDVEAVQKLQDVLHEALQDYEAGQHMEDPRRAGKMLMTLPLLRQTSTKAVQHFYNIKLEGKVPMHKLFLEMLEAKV
Assay: ThermoFluor thermal shift assay, ERRγ ligand binding domain
Settings: 0.1 mg/mL protein, 25 mM HEPES pH 8.0, Tm free protein 49.6 °C
Experimental: The vector was in E. coli BL21(DE3) and cultured in Minimal media (M9) at 37° C. to an OD595 0.6-0.8, followed by induction at 15° C. with 0.4 mM IPTG for 20 hours. The next day, the culture was harvested and lysed in buffer A (Buffer A: 20 mM Tris-HCl, pH 7.5, 0.4 M NaCl and 5 mM Imidazole) using an Emulsiflex-C5 french press (Avestin). Lysates were spun at 40,000×g for 45 minutes to remove insoluble material. The clarified lysate was applied on a Ni-NTA column and eluted with a linear gradient of imidazole. The protein was further purified by applying the eluent on a Superdex 200 HR 10/30 column (Amersham Pharmacia Biotech) equilibrated with Buffer B (Buffer B: 20 mM Tris-HCl pH 7.5, 0.2M NaCl, 1 mM EDTA and 1 mM DTT). […] Fractions were pulled and concentrated to 4 mg/ml and frozen in liquid nitrogen and stored at −80° C.
The ligand binding domain of ERRγ was screened against a library of known estrogen activators and a generic drug library using ThermoFluor®. ThermoFluor® is a miniaturized thermal shift assay, that has been developed for HTS applications; as a secondary assay for confirmation and characterization of hits; and as a functional assay to characterize orphan proteins. ThermoFluor® exploits the well-described phenomenon of ligand induced stabilization of macromolecules. Ligand binding energy adds directly to the ground state energy of a macromolecule and results in increased thermal stability. The degree of stabilization is proportional to the binding affinity of the ligand for the macromolecule.
Assay plates were prepared by dispensing 2 μL of a protein-dye solution and 2 μL of the test compound in a 384-well plate. […] Finally 1 μL of mineral oil was dispensed on top to prevent evaporation during the high throughput screen (HTS). ThermoFluor® is an HTS assay that measures protein unfolding based on fluorescence detection of the denatured form of the protein. The reporter for the protein unfolding event is the environmentally sensitive dye ANS that is incorporated in the screening buffer. During a typical experiment the 384-well plate is heated at a ramping rate of 1° C./min and the thermal unfolding of the protein is monitored at 1° C. intervals by measuring fluorescence changes detected through a CCD camera. Captured images are integrated and a melting curve is generated that relates fluorescence to fraction of unfolded protein as a function of temperature. […] Hits were identified from the screen by measuring an increase in the melting temperature of the protein.
In order to estimate binding affinities, it was taken into account that the oligomeric state of ERRγ which is a dimer (N2), and that of a single ligand (Lf) can interact per monomer subunit with equal affinity. The melting curve for such a system is described by the following three equilibria:
To compare dissociation constants at a common reference temperature, Tref, the following equation was used: […]
In the thermodynamic treatment of the data the following assumptions were made: i) the small ligand interacts only with the folded state of the protein, ii) the reactions are reversible; iii) the unfolding protein reaction is a two-state process and iv) ideal dilute solutions are being used (specific activity for protein and ligands is equal to 1).

Question: Which “ΔTm, thermal stabilization of ERRγ” value (100 μM test compound) does the source give for `Cc1cc(O)ccc1Cl` [ClCH3Ph, 4-chloro, 3-methyl phenol] here?
Answer: 3.9 °C

Question: What about the ΔTm at 100 µM (pH 8, read-out: ΔTm, thermal stabilization of ERRγ, 100 μM test compound) of the same compound?
Answer: 4 to 5.7 °C
